Laboratory results published in PMC4875962 (Clinical Pharmacokinetics, 2015).
Where two headings read alike, the source gives them in different places.

What was measured:
[1] = cited from earlier work
[2] = cited from earlier work; remark: listed apart in the source
[3] = Drug-drug interaction studies: effect on edoxaban pharmacokinetics; conditions: coadministration of high-dose aspirin (325 mg); data on file
[4] = tested on: plasma anti-FXa activity, PT, aPTT; conditions: cited from earlier work
[5] = cited from earlier work; remark: listed apart in the source
[6] = concentrations of 0.2–5 µg/mL; cited from earlier work
OATP1B1 [7] = conditions: read-out: IC50, inhibitory effect on OATP1B1; cited from earlier work
[8] = cited from earlier work; remark: listed apart in the source
[9] = tested on: multidrug resistance protein 1 (MDR1; P-gp); test: Induction of gene expression in human hepatocytes; conditions: data on file
P-glycoprotein (P-gp) = conditions: Caco-2 cell monolayers; cited from earlier work
[10] = cited from earlier work; remark: listed apart in the source
P-gp = conditions: read-out: IC50, inhibitory effect on P-gp; cited from earlier work
[11] = tested on: thrombin generation and platelet activation; conditions: postdose; cited from earlier work
[12] = 60 mg of [14C]-edoxaban, cited from earlier work
[13] = tested on: ex vivo thrombus formation; conditions: single 60 mg dose, healthy subjects; cited from earlier work
OAT1 = conditions: read-out: IC50, inhibitory effect on OAT1; cited from earlier work
[14] = cited from earlier work; remark: listed apart in the source
Caco-2 cells = conditions: cited from earlier work
CYP3A4 = test: Induction of gene expression in human hepatocytes; conditions: data on file
OCT2 = conditions: read-out: IC50, inhibitory effect on OCT2; cited from earlier work
[15] = pH range of 3–7, decreases with increasing pH; cited from earlier work
OAT3 = conditions: cited from earlier work
OATP1B3 = conditions: read-out: IC50, inhibitory effect on OATP1B3; cited from earlier work
CYPs = conditions: read-out: IC50, inhibitory effect on CYPs; cited from earlier work
OATP1B1 [16] = conditions: cited from earlier work
[17] = cited from earlier work; remark: listed apart in the source
[18] = 60 mg daily for 4 days, day 1 and day 4
[19] = Mild impairment: CLCR ≥50–≤80 mL/min
[20] = Moderate impairment: CLCR ≥30–<50 mL/min
[21] = Severe impairment: CLCR <30 mL/min
[22] = coadministration of amiodarone, following 3 days of once daily dosing
[23] = coadministration of cyclosporine
[24] = coadministration of dronedarone
[25] = coadministration of erythromycin
[26] = coadministration of high-dose aspirin (325 mg)
[27] = coadministration of ketoconazole
[28] = coadministration of oral quinidine
[29] = coadministration of sustained-release verapamil
[30] = rifampin after 7 days of dosing

CN1CCc2nc(C(=O)N[C@@H]3C[C@@H](C(=O)N(C)C)CC[C@@H]3NC(=O)C(=O)Nc3ccc(Cl)cn3)sc2C1 [edoxaban]
fraction absorbed in the colon [1]: approximately 13% | safety assessed by bleeding events versus warfarin [2]: improved safety | efficacy versus warfarin ([2]; non-valvular AF, deep vein thrombosis and pulmonary embolism): noninferior | reduction of renal clearance of edoxaban [3]: 17% | time to peak elevation of PT and aPTT [4, 18]: ≤ 2 h | time to return of PT and aPTT to near-baseline levels [4, 18]: ≤ 24 h | time to peak effects on anticoagulation markers (anti-FXa, PT, aPTT) ([4]; oral administration): 1 to 2 h | time to maximum effect on plasma anti-FXa activity ([4]; single dose 10–150 mg, healthy subjects): 1 to 2 h | effect on prolongation of bleeding time ([5]; coadministration of edoxaban and low-dose (100 mg) or high-dose aspirin (325 mg)): additive effect | increase in bleeding time vs naproxen alone ([5]; coadministration of edoxaban with naproxen, 90 % CI 98.1–151.0): 22% | in vitro total plasma protein binding [6]: about 55% | IC50 (OATP1B1 [7]): ≥ 50 µM | change in QTcI value, one subject ([8]; 90 mg dose group, 10 h postdose): 32 ms | upper bounds of the 95 % one-sided CIs for placebo-corrected QTcI change from time-matched baseline ([8]; 90 and 180 mg, any time point): ≤ 4 ms | effect on cardiac repolarization ([8]; 90 and 180 mg): did not have a threshold pharmacological effect | changes in QTcI, all except one subject ([8]; all time points): below 30 ms | absolute value of QTcI ([8]; any subject, 90 and 180 mg): ≤ 450 ms | induction of gene expression of MDR1 (P-gp) [9]: do not induce | substrate of the efflux transporter P-gp (P-glycoprotein (P-gp)): is a substrate | AUC∞ [10, 19]: 636 ± 152 ng·h/mL | CL/F [10, 19]: 24.8 ± 6.00 L/h | CLR [10, 19]: 7.68 ± 2.57 L/h | AUC∞ [10, 20]: 816 ± 209 ng·h/mL | C max [10, 20]: 115 ± 42.3 ng/mL | CL/F [10, 20]: 19.4 ± 4.69 L/h | CLR [10, 20]: 4.30 ± 1.72 L/h | AUC∞ ([10]; Normal: CLCR >80 mL/min): 453 ± 102 ng·h/mL | CL/F ([10]; Normal: CLCR >80 mL/min): 34.6 ± 7.32 L/h | C max [10, 21]: 91.9 ± 32.8 ng/mL | CL/F [10, 21]: 18.5 ± 4.87 L/h | CLR [10, 21]: 2.12 ± 0.88 L/h | higher total exposure vs normal renal function ([10]; mild renal impairment (CLCR ≥50–≤80 mL/min)): 32% | higher total exposure vs normal renal function ([10]; moderate renal impairment (CLCR ≥30–<50 mL/min)): 74% | higher total exposure vs normal renal function ([10]; severe renal impairment (CLCR <30 mL/min)): 72% | IC50 (P-gp): ≥ 50 µM | time of nadir for shed blood F1+2 and β-thromboglobulin [11]: 1.5 h | total radioactive dose detected in faeces ([12]; healthy subjects): 62% | total radioactive dose detected in urine ([12]; healthy subjects): 35% | unchanged edoxaban in faeces, share of total administered radioactive dose [12]: 49% | unchanged edoxaban in urine, share of total administered radioactive dose [12]: 24% | ex vivo thrombus formation under high and low shear rates [13]: markedly reduced | IC50 (OAT1): ≥ 100 µM | pharmacokinetic parameters vs continual treatment with edoxaban ([14]; 60 mg on day 4 after rivaroxaban 20 mg once daily for 3 days): similar | pharmacokinetic parameters vs 4 days of continual edoxaban ([14]; 60 mg single dose after dabigatran 150 mg twice daily for 3 days): similar | anticoagulant effects (anti-FXa, PT, aPTT, ETP) vs 4 days of continual edoxaban ([14]; after switching from rivaroxaban): similar | PT and anti-FXa activities, switched from dabigatran vs continuous edoxaban [14]: not different | aPTT and ETP after switching from dabigatran [14]: carryover effect | effect of warfarin on the pharmacokinetics of edoxaban ([14]; switching 24 h after cessation of warfarin): no effect | permeability in Caco-2 cells (Caco-2 cells): poor | induction of gene expression of CYP3A4 (CYP3A4): do not induce | IC50 (OCT2): ≥ 100 µM | solubility [15]: pH dependent | substrate of OAT3 (OAT3): is not a substrate | IC50 (OATP1B3): ≥ 50 µM | IC50 (CYPs): ≥ 100 µM | substrate of OATP1B1 (OATP1B1 [16]): is not a substrate | increase in peak exposure to single doses of edoxaban [17, 22]: 66% | increase in total exposure to single doses of edoxaban [17, 22]: 40% | effect on peak or total exposure to edoxaban ([17]; coadministration of atorvastatin): no effect | increase in peak exposure to single doses of edoxaban [17, 23]: 74% | increase in total exposure to single doses of edoxaban [17, 23]: 73% | increase in edoxaban Cmax ([17]; coadministration of digoxin, steady state): 16% | effect on total exposure or renal clearance at steady state ([17]; coadministration of digoxin): no significant effect | increase in peak exposure to single doses of edoxaban [17, 24]: 46% | increase in total exposure to single doses of edoxaban [17, 24]: 85% | increase in peak exposure to single doses of edoxaban [17, 25]: 68% | increase in total exposure to single doses of edoxaban [17, 25]: 85% | increase in steady-state peak exposure to edoxaban [17, 26]: 34% | increase in steady-state total exposure to edoxaban [17, 26]: 30% | increase in single-dose peak exposure to edoxaban [17, 27]: 89% | increase in single-dose total exposure to edoxaban [17, 27]: 87% | effect on peak and total exposure to edoxaban ([17]; coadministration of naproxen): no effect | increase in 24-h exposure to orally dosed edoxaban [17, 28]: 77% | increase in single-dose peak exposure to orally dosed edoxaban [17, 28]: 85% | increase in 24-h exposure to single doses of edoxaban [17, 29]: 53% | increase in peak exposure to single doses of edoxaban [17, 29]: 53% | increase in exposure to edoxaban (Cmax and AUC) ([17]; concomitant P-gp inhibitor use): less than twofold | decrease in peak exposure to edoxaban ([17]; edoxaban 2 h after esomeprazole at steady state): about 33% | effect on peak and total exposure to edoxaban ([17]; enoxaparin dosed concomitantly or 12 h apart): did not affect | increase in Cmax of edoxaban ([17]; esomeprazole, 2-h stagger at steady state, 90 % CI 57.98–78.07): approximately 33% | effect on total exposure to edoxaban ([17]; esomeprazole, 2-h stagger at steady state, 90 % CI within 80–125 %): no significant effect | effect on peak and total exposure to edoxaban ([17]; esomeprazole, concurrent dosing): no significant effect | increase in peak exposure to intravenous edoxaban ([17]; orally administered quinidine): 7.5% | increase in total exposure to intravenous edoxaban ([17]; orally administered quinidine): 35% | decrease in total edoxaban exposure [17, 30]: about 34% | effect on peak edoxaban exposure [17, 30]: no effect
